Assay [1] deals with T1, human P2X4 receptor (Homo sapiens, UniProt Q99571).
T1 sequence (Q99571 1-388): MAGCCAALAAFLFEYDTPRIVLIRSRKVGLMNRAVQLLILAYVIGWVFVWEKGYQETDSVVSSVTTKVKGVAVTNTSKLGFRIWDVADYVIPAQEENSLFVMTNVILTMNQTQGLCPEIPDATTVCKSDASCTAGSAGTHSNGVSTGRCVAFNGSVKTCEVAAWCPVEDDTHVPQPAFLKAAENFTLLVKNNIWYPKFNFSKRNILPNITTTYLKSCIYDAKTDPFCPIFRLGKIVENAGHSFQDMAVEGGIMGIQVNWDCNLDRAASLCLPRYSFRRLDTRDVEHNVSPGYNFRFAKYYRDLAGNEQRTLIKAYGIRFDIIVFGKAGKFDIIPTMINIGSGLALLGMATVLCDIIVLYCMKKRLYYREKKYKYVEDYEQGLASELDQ
As to the kind of experiment: P2X4 receptor antagonist activity, ATP-induced intracellular calcium (Fura-2 AM) in 1321N1 cells stably expressing human P2X4 receptor. The class given is cell-based. The settings on record: among human, mouse, and rat. A general note: A change in cytosolic calcium serves as a functional read-out for many receptors and channels.

In assay [2] the target is T2, Rat P2X3 (Rattus norvegicus, UniProt P49654).
T2 construct: host or cells: cells expressing the receptor
T2 sequence (P49654 1-397): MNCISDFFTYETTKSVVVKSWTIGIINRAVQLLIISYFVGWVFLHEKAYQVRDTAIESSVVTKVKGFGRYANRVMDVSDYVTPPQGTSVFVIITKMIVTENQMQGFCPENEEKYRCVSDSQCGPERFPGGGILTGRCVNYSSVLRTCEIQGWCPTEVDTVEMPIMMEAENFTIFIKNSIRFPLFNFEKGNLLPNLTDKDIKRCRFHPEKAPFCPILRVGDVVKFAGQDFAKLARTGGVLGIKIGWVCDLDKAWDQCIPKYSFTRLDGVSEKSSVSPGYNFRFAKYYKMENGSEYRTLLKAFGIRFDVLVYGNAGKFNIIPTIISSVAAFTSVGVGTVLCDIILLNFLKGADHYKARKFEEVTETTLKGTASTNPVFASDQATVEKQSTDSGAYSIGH
Put plainly: P2X receptor family selectivity, calcium imaging method using cells expressing the receptor. The class given is cell-based.

Assay [3] relates to rat neuropathic pain model (modified Chung model). Put plainly: Analgesic activity, rat neuropathic pain model (modified Chung model), von Frey filament test. The class given is in vivo. As for the experimental part: The analgesic activity of the compound of the present invention was measured by the following method.
Rat neuropathic pain model (modified Chung model) was prepared according to the method of Kim, S. H., Chung, J. M. et al. (An experimental model for peripheral neuropathy produced by segmental spinal nerve ligation in the rat, Pain, 50, 355-363 (1992)). More specifically; under isoflurane anesthesia, back hair of rats was extensively shaved, the shaved parts were wiped with rubbing alcohol, the rats were fixed in the prone position on a heating pad, and the skins were cut and opened along the dorsal median line on the upper and lower sides of the sacroiliac bone. The left lateral paravertebral muscle was separated in the sacral region, and then the ligament was separated. […]
The pain threshold (paw withdrawal threshold (g)) was measured by stimulating the soles of rats with each of seven von Frey filaments (Stoelting Co., TOUCH-TEST SENSORY EVALUATOR) that gave different stimulation strengths, and determining presence or absence of withdrawal response. The 50% threshold was calculated according to the up down method with reference to the method of Chaplan et al. (Chaplan S R, Bach F W, Pogrel J W, Chung J M, Yaksh T L: Quantitative assessment of tactile allodynia in the rat paw, J. Neurosci. Method, 53:55-63 (1994)). […]

Assay [4] concerns the target T3, Rat P2X7 (Rattus norvegicus, UniProt Q64663).
T3 construct: host or cells: cells expressing the receptor
T3 sequence (Q64663 1-595): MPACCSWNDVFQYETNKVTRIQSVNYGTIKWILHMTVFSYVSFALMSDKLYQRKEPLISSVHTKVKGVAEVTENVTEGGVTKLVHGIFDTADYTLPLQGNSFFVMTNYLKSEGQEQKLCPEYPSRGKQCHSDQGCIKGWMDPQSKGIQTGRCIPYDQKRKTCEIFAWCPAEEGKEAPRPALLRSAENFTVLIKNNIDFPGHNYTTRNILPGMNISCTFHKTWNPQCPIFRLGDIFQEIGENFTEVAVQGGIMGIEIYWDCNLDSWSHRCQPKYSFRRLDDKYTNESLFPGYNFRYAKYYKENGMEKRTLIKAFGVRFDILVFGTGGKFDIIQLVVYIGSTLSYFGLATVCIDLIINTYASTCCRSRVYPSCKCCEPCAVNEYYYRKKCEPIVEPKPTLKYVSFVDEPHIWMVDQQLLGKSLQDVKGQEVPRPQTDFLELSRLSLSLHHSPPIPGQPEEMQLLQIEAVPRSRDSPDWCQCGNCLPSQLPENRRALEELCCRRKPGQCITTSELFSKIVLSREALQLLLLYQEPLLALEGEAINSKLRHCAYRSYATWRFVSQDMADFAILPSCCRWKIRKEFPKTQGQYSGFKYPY
Put plainly: P2X receptor family selectivity, calcium imaging method using cells expressing the receptor. The class given is cell-based.

Assay [5] has as its target T4, Human P2X7 (Homo sapiens, UniProt Q99572).
T4 construct: host or cells: cells expressing the receptor
T4 sequence (Q99572 1-595): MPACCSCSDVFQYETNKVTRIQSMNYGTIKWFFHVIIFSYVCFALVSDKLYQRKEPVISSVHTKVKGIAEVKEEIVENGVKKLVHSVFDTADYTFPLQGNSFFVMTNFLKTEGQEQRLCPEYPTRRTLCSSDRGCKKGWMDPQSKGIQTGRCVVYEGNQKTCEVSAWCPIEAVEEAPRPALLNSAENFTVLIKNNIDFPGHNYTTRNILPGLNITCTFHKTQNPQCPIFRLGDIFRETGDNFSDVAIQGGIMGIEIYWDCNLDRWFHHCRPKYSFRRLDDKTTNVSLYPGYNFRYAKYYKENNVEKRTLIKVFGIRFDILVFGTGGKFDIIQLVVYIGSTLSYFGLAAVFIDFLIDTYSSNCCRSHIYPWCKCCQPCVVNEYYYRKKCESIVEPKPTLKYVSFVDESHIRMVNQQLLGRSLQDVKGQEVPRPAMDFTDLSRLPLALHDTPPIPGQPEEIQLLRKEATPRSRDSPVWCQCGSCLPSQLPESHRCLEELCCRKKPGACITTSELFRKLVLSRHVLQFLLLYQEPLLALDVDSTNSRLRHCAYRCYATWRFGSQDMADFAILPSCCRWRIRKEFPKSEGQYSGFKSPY
The assay is described as above. The class given is cell-based.

The target in assay [6] is T5, Mouse P2X4 (Mus musculus, UniProt Q9JJX6).
T5 construct: host or cells: cells expressing the receptor
T5 sequence (Q9JJX6 1-388): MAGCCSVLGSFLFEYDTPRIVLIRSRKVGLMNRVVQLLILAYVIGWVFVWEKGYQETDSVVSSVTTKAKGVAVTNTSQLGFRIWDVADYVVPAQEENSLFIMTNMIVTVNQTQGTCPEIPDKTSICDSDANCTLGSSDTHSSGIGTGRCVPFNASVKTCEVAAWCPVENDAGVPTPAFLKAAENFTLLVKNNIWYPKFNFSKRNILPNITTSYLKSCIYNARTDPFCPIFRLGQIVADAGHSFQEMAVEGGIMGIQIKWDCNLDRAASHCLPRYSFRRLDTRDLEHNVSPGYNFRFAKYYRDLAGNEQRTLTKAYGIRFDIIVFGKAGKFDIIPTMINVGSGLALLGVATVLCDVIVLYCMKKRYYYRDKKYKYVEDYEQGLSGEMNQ
The description is as above. The class given is cell-based. The text has this: (§1) The inhibitory activities of the compound against the rat and mouse P2X4 receptors were also confirmed.

In assay [7] the target is T6, Rat P2X4 (Rattus norvegicus, UniProt P51577).
T6 construct: host or cells: cells expressing the receptor
T6 sequence (P51577 1-388): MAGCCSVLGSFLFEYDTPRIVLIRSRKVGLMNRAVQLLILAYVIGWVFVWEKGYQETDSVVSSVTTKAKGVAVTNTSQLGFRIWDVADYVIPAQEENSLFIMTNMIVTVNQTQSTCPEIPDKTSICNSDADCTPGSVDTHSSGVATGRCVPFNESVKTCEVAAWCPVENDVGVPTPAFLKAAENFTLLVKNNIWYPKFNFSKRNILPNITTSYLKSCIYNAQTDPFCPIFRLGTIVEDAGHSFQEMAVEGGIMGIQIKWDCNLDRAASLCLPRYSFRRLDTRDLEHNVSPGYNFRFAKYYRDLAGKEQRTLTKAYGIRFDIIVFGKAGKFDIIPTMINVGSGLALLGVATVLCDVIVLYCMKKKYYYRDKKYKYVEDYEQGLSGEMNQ
The description is as above. The class given is cell-based.
Text: as §1

From patent US10472333B2, “P2X4 receptor antagonist” (NIPPON CHEMIPHAR CO., LTD., priority 2013, dated 2019) come the findings set out here.

Broadly, the IC50 is the midpoint of a concentration-inhibition curve. On to `CN(C)c1ncccc1C(=O)Nc1ccc(C2=NCC(=O)Nc3c2ccc2ccccc32)cc1.Cl.Cl` [Example 15, 2-(Dimethylamino)-N-[4-(2-oxo-2,3-dihydro-1H-naphtho[1,2-e][1,4]diazepin-5-yl)phenyl]nicotinamide dihydrochloride], for which the “Species-specific difference of the P2X4 receptor inhibitory activity” value in assay [1] is “not observed”. Besides, the IC50 in assay [2] is 6.8 µM; in assay [4] it was greater than 30 µM; in assay [5] it was greater than 30 µM; in assay [6], 0.52 µM; in assay [7], 1.3 µM. The “pain threshold of the affected limb (von Frey filament test)” value in assay [3] (rat modified Chung model, 30 mg/kg orally twice a day (60 mg/kg/day) for 14 days from day 9 after operation, measured 3 hours after administration, vs. vehicle group) is “increased”. Moreover, the analgesic activity result in assay [3] (rat neuropathic pain model (modified Chung model)) is listed as “superior analgesic activity”.
